One block for each molecule: values may come before it.
Assays:
MDA-MB-231 [1] = assay: Antiproliferative activity against human MDA-MB-231 cells assessed as reduction in cell viability measured after 24 hrs by MTT assay; type: functional, cell-based; details: MDA-MB-231, 24 h
MDA-MB-231 [2] = assay: Antiproliferative activity against human MDA-MB-231 cells assessed as inhibition of cell growth incubated for 72 hrs by Celltiter Glo assay; type: functional, cell-based; details: MDA-MB-231, 72 h
MDA-MB-231 [3] = assay: Antiproliferative activity against human MDA-MB-231 cells assessed as inhibition of cell growth by MTT assay; type: functional, cell-based
MCF7 [4] = assay: Antiproliferative activity against human MCF7 cells assessed as reduction in cell proliferation incubated for 48 hrs by MTT assay; type: functional, cell-based; details: MCF7, 48 h
MCF-10A = assay: Antiproliferative activity against human MCF-10A cells assessed as reduction in cell proliferation incubated for 48 hrs by MTT assay; type: functional, cell-based
MCF7 [5] = assay: Antiproliferative activity against Doxorubicin-resistant human MCF7 cells assessed as reduction in cell proliferation incubated for 48 hrs by MTT assay; type: functional, cell-based; details: MCF7, 48 h
MDA-MB-231 [6] = assay: Antiproliferative activity against human MDA-MB-231 cells assessed as reduction in cell proliferation incubated for 48 hrs by MTT assay; type: functional, cell-based; details: MDA-MB-231, 48 h
[7] = Selectivity index, ratio of IC50 for antiproliferative activity against human MCF-10A cells to IC50 for antiproliferative activity against human MCF7 cells by MTT assay; type: toxicity, cell-based; details: MCF-10A cells versus MCF7 cells, read-out: Selectivity Index
MCF7 [8] = assay: Antiproliferative activity against human MCF7 cells assessed as inhibition of cell proliferation incubated for 24 hrs by MTT assay; type: functional, cell-based; details: MCF7, 24 h
MDA-MB-231 [9] = assay: Antiproliferative activity against human MDA-MB-231 cells assessed as inhibition of cell proliferation incubated for 24 hrs by MTT assay; type: functional, cell-based; details: MDA-MB-231, 24 h
[10] = target: T1, Prostaglandin G/H synthase 2 (Homo sapiens) (UniProt P35354); assay: Inhibition of COX-2 (unknown origin) at 50 uM by fluorescence based method relative to control
T1 sequence (whole entry): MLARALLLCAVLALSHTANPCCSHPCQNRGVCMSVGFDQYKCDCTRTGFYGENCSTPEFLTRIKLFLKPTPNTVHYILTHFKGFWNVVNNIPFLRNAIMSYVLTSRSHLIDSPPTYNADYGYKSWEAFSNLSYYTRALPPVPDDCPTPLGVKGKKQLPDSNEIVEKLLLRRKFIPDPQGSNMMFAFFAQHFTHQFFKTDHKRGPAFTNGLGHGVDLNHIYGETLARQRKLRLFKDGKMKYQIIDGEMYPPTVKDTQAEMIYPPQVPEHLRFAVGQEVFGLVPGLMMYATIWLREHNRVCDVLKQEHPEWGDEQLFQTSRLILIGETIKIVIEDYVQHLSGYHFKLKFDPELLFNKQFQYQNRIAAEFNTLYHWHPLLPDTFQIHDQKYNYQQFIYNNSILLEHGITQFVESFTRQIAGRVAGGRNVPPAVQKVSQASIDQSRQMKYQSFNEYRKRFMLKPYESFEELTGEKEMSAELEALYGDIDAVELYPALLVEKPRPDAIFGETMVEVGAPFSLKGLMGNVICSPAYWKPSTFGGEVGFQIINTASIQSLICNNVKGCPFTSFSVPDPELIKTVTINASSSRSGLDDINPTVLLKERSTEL

HEK293 [11] = assay: Antiproliferative activity against human HEK293 cells assessed as inhibition of cell growth measured after 24 hrs by MTT assay; type: functional, cell-based; details: HEK293, 24 h
MDA-MB-361 = assay: Antiproliferative activity against human MDA-MB-361 cells assessed as reduction in cell viability measured after 48 hrs by MTT assay; type: functional, cell-based; details: MDA-MB-361, 48 h
C-33-A = assay: Antiproliferative activity against human C-33-A cells assessed as reduction in cell viability measured after 48 hrs by MTT assay; type: functional, cell-based
MDA-MB-231 [12] = assay: Antiproliferative activity against human MDA-MB-231 cells assessed as reduction in cell viability measured after 48 hrs by MTT assay; type: functional, cell-based; details: MDA-MB-231, 48 h
MCF7 [13] = assay: Antiproliferative activity against human MCF7 cells assessed as reduction in cell viability measured after 48 hrs by MTT assay; type: functional, cell-based; details: MCF7, 48 h
T47D = assay: Antiproliferative activity against human T47D cells assessed as reduction in cell viability measured after 48 hrs by MTT assay; type: functional, cell-based
MCF7 [14] = assay: Antiproliferative activity against human MCF7 cells assessed as reduction in cell viability measured after 24 hrs by MTT assay; type: functional, cell-based; details: MCF7, 24 h
MCF7 [15] = assay: Antiproliferative activity against human MCF7 cells assessed as cell growth inhibition measured after 24 hrs by MTT assay; type: functional, cell-based; details: MCF7, 24 h
HEK293 [16] = assay: Antiproliferative activity against human HEK293 cells assessed as inhibition of cell proliferation measured after 24 hrs by MTT assay; type: functional, cell-based; details: HEK293, 24 h
MCF7 [17] = assay: Antiproliferative activity against human MCF7 cells assessed as reduction in cell viability; type: functional, cell-based

IC50 (MDA-MB-231 [1]): 22 µM
IC50 (MDA-MB-231 [2]): 22.3 µM
SMILES: CCOC(=O)[C@H]1Cc2c([nH]c3ccccc23)CN1Cc1cn(CCCCCOc2ccc(C(=O)/C=C/c3cc(OC)c(OC)c(OC)c3)cc2)nn1

IC50 (MCF7 [8]): 37.4 µM
IC50 (MDA-MB-231 [9]): > 100 µM
SMILES: CCOC(=O)[C@H]1Cc2c([nH]c3ccccc23)CN1Cc1cn(CCCN2C(=O)C(=O)c3ccccc32)nn1

inhibition [10]: 95%
IC50 (MDA-MB-231 [2]): 35.5 µM
SMILES: OC[C@H]1O[C@@H](Cc2cc(-c3c[nH]c4ccccc34)on2)[C@H](O)[C@@H](O)[C@@H]1O

IC50 (MCF7 [17]): 10.3 µM
SMILES: CCOC(=O)[C@H]1Cc2c([nH]c3ccccc23)CN1Cc1cn(CCCOc2ccc(C(=O)/C=C/c3ccc(F)cc3)cc2)nn1

Further lines, the molecule ahead of its results:

SMILES: O=C1C(=O)N(CCn2cc(COCCOc3ccc(/C(=C(/CCCl)c4ccccc4)c4ccccc4)cc3)nn2)c2c(Br)cc(Br)cc21
IC50 (MDA-MB-231 [3]): 48.5 µM

SMILES: CCO/N=C1/C(=O)N(CCCOC2O[C@@H]3O[C@@]4(C)CC[C@H]5[C@H](C)CC[C@@H]([C@H]2C)[C@@]35OO4)c2ccc(F)cc21 (stereo partly drawn)
IC50 (MCF7 [4]): 20.7 µM
IC50 (MCF-10A): > 100 µM
IC50 (MCF7 [5]): 21.7 µM
IC50 (MDA-MB-231 [6]): 23.9 µM
selectivity ratio [7]: > 1.3

SMILES: Cc1ncc([N+](=O)[O-])n1Cc1cn(CCCCN2C(=O)C(=O)c3cc(Cl)ccc32)nn1
IC50 (HEK293 [11]): 12.1 µM

SMILES: COc1ccc2c3c([nH]c2c1)[C@]12CC(C)(C)[C@@]4(C(=O)N1CC3)c1[nH]c3cc(OC)ccc3c1CCN24
IC50 (MCF7 [8]): 38.5 µM

SMILES: C[C@H]1[C@@H](CC(=O)OC[C@H]2C[C@H]3[C@@H]4CCc5cc(OCc6ccccc6)ccc5[C@H]4CC[C@]3(C)[C@H]2O)OC2O[C@]3(C)CC[C@H]4[C@H](C)CC[C@@H]1[C@@]24OO3 (stereo partly drawn)
EC50 (MDA-MB-361): 0.18 µM
EC50 (C-33-A): 0.15 µM
EC50 (MDA-MB-231 [12]): 0.86 µM
EC50 (MCF7 [13]): 0.45 µM
EC50 (T47D): 0.93 µM

SMILES: COc1cccc(OC)c1C1CC(c2ccc(OCc3cn(CCCN4C(=O)c5cccc6cccc(c56)C4=O)nn3)cc2)=NN1C(C)=O (stereo not drawn)
IC50 (MCF7 [14]): 62.2 µM
IC50 (MCF7 [15]): 62.2 µM
IC50 (HEK293 [16]): > 100 µM

Reference: ChEMBL document CHEMBL5252593, “Therapeutic significance of molecular hybrids for breast cancer research and treatment” (RSC Med Chem, 2023)
